Results: PubChem BioAssay (NCI)
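48-hour exposure; five concentrations; linearly interpolated endpoints. Abbreviation: GI50, concentration required for 50% inhibition of growth. TGI: total growth inhibition.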

Key:
Assay in all cases: growth of human tumour cells (NCI), 48 h
OVCAR-3 ovarian = tested on: OVCAR-3 ovarian
NCI-H460 lung = tested on: NCI-H460 lung
UO-31 renal = tested on: UO-31 renal
BT-549 breast = tested on: BT-549 breast
A498 renal = tested on: A498 renal
NCI-H226 lung = tested on: NCI-H226 lung
HCT-15 colon = tested on: HCT-15 colon
SNB-75 CNS = tested on: SNB-75 CNS
NCI-H23 lung = tested on: NCI-H23 lung
HL-60(TB) leukemia = tested on: HL-60(TB) leukemia

Row | Compound | TGI (OVCAR-3 ovarian) [µM] | TGI (NCI-H460 lung) [µM] | TGI (UO-31 renal) [µM] | TGI (BT-549 breast) [µM] | TGI (A498 renal) [µM] | TGI (NCI-H226 lung) [µM] | TGI (HCT-15 colon) [µM] | TGI (SNB-75 CNS) [µM] | TGI (NCI-H23 lung) [µM] | TGI (HL-60(TB) leukemia) [µM] | GI50 (OVCAR-3 ovarian) [µM] | GI50 (NCI-H23 lung) [µM] | GI50 (HL-60(TB) leukemia) [µM] | GI50 (NCI-H460 lung) [µM] | GI50 (UO-31 renal) [µM] | GI50 (BT-549 breast) [µM] | GI50 (A498 renal) [µM] | GI50 (NCI-H226 lung) [µM] | GI50 (HCT-15 colon) [µM] | GI50 (SNB-75 CNS) [µM]
1 | C[N+]12C=CC=C1C(N1CCCC1)c1sc(-c3ccc(Cl)cc3)cc12 (stereo not drawn) | 26.5 | 32.6 | > 100 | 22 | 41.4 | 35.3 | 90.5 | 25.7 |  |  |  |  |  |  |  |  |  |  |  | 
2 | Nc1c2ccccc2nc2ccc(C(=O)Nc3ccc(S(N)(=O)=O)cc3)cc12 | > 100 | > 100 | > 100 | > 100 |  | > 100 | > 100 | > 100 | > 100 | > 100 |  |  |  |  |  |  |  |  |  | 
3 | O=C(C(=O)n1ccc2ccccc21)c1c[nH]c2ccccc12 | > 10 | > 10 | > 10 | > 10 |  | > 10 | > 10 | > 10 | > 10 | > 10 |  |  |  |  |  |  |  |  |  | 
4 | O=S(=O)(CC#CCS(=O)(=O)c1ccccc1)c1ccccc1 | 2.91 | 38.9 | 2.65 | 11.8 | 36.3 | 34.7 | 4 | 5.55 | 12.2 | 16.1 |  |  |  |  |  |  |  |  |  | 
5 | CN(C)/C=C/c1ccnc2c1C(=O)c1ccccc1C2=O | > 100 | 7.13 | 43.6 | 14.9 | > 85.6 | > 52.7 | 31.5 | 16.1 | 7.17 | > 55.5 |  |  |  |  |  |  |  |  |  | 
6 | CN(C)CCCN1c2ccc3ccccc3c2Sc2cccc(Cl)c21 | 10.6 | 3.25 | 12 | 42.7 | 25.8 | 18.7 | 22.7 | 12 | 35.4 | 3.99 |  |  |  |  |  |  |  |  |  | 
7 | CC(C)NC(=O)OCc1c(COC(=O)NC(C)C)c(-c2ccc[n+](COC(=O)C3CCCCC3)c2)n2c1CCC2 | > 100 | > 100 | > 100 | > 100 | 87.5 | > 100 | > 100 | > 100 | > 100 | > 100 |  |  |  |  |  |  |  |  |  | 
8 | CC(C)(C)OC(=O)N1CC(COS(C)(=O)=O)c2ccc(O)cc21 (stereo not drawn) | 7.25 | 5.45 | 5.26 | 3.58 | 4.38 | 4.67 | 5.68 | 3.05 | 3.05 | 3.98 |  |  |  |  |  |  |  |  |  | 
9 | NC(N)=NS(=O)(=O)c1ccc(NC(=O)c2c3ccccc3nc3ccccc23)cc1 | > 100 | > 100 | > 100 | > 100 | > 100 | > 100 | > 100 | > 100 | > 100 |  |  |  |  |  |  |  |  |  |  | 
10 | COc1cc(C2c3cc4c(c(O)c3C(=O)C3CCC(=O)N32)OCO4)cc(OC)c1OC (stereo not drawn) | > 100 | > 100 | > 100 | 92.5 | > 100 | > 100 | > 100 | > 100 | > 100 | > 100 |  |  |  |  |  |  |  |  |  | 
11 | COc1cccc(C(=O)C(O)c2cccc(OC)c2OC)c1OC (stereo not drawn) | > 100 | > 100 | > 100 | > 100 | > 100 | > 100 | > 100 | > 100 | > 100 | > 100 |  |  |  |  |  |  |  |  |  | 
12 | N#C/C(=C/NC(=S)Nc1ccc(S(N)(=O)=O)cc1)C(N)=O | > 100 | > 100 |  | > 100 | > 100 |  | > 100 | > 100 | > 100 | > 100 |  |  |  |  |  |  |  |  |  | 
13 | Nc1cc(N)c2nc(-c3ccccc3)c(Sc3ccc(F)cc3)nc2c1 | 33.6 | 65.8 | > 100 | 44.1 | 46 | 46.4 | 27.4 | 47.8 | 39.4 | > 100 | 16.3 | 19 | 39.3 | 21.7 | 32 | 22 | 27.5 | 19 | 13.4 | 21.1
14 | c1ccc(C2(c3cc4ccccc4[nH]3)OCCO2)cc1 | > 100 | > 100 | > 100 | > 100 | > 100 | > 100 | > 100 | > 100 | > 100 |  |  |  |  |  |  |  |  |  |  | 
15 | O=c1[nH]/c(=C/c2ccc(OCc3ccccc3)cn2)c(=O)[nH]/c1=C/c1cccnc1 |  | 7.82 |  | > 100 | 6.46 |  |  | 36.8 |  | 0.541 |  |  |  |  |  |  |  |  |  | 
16 | Fc1ccccc1N=c1oc2ccc(Br)cc2cc1-c1nc2ccccc2[nH]1 |  | > 76.6 | 20.5 | 26.7 | 9.69 | 17.6 | > 100 | 4.74 | 29.8 | > 100 |  |  |  |  |  |  |  |  |  | 
17 | O=C(CSCC(=O)N/N=C\c1cc(Br)cc(Br)c1O)N/N=C\c1cc(Br)cc(Br)c1O | 93.8 | > 100 | 49.6 | > 100 |  | 58.2 | > 100 | > 100 | > 100 |  |  |  |  |  |  |  |  |  |  | 
18 | COC(=O)C1(C(=O)OC)CC2=C(S(=O)(=O)c3ccccc3)C[C@@H](C#N)[C@H]2C1 | 75.6 | > 100 | > 100 | > 100 | > 100 | > 100 | > 100 | > 100 | > 100 | > 100 |  |  |  |  |  |  |  |  |  | 
19 | CC(C)(C)OC(=O)N(CCCN)CCCCN(CCCN)C(=O)OC(C)(C)C | > 100 | > 100 | > 100 | > 100 | > 100 | > 100 | > 100 | > 100 | > 100 | > 100 |  |  |  |  |  |  |  |  |  | 
20 | Cc1ccc(-c2cn3c(nc4ccccc43)c(C)n2)cc1 | > 100 | > 100 | > 30.1 | > 89.4 | > 77.5 | > 100 | > 100 | > 87.6 | > 100 | > 100 |  |  |  |  |  |  |  |  |  | 
21 | COC(=O)[C@H]1ON2O[C@H](OC3CCCC[C@@H]3c3ccccc3)C[C@@H]3CC[C@H]1[C@@]32C (stereo partly drawn) |  | > 100 | > 100 | > 100 | > 100 | > 100 | > 100 | > 100 | > 100 | 98.5 |  |  |  |  |  |  |  |  |  | 
